Patent US9993494B2, “Compositions and methods for treating fibrotic disease” (eFFECTOR Therapeutics, Inc., priority 2014, dated 2018)

Test system: normal human lung fibroblasts
Test: Ribosomal profiling: translational efficiency in TGFβ-treated fibroblasts
Assay type: cell-based
Experimental: Ribosomal profiling allows for measurement of changes in transcription and translation on a genome-wide basis accompanying TGFβ-dependent transformation of fibroblasts to myofibroblasts. Ribosomal profiles of the TGFβ-treated fibroblasts from Example 1 (about 6×10^6 cells/10 cm plate) were prepared and analyzed for changes in translational efficiencies with respect to potential disease-associated cellular changes accompanying this TGFβ-induced transformation.
Briefly, cells were washed with cold PBS supplemented with cycloheximide and lysed with 1× mammalian cell lysis buffer for 10 minutes on ice. Lysates were clarified by centrifugation for 10 minutes at 14,000 rpm and supernatants were collected. Cell lysates were processed to generate ribosomal protected fragments and total mRNA according to the instructions included with the ARTseq Ribosome Profiling Kit (Illumina, San Diego, Calif.). Sequencing of total RNA (RNA) and of ribosome-protected fragments of RNA (RPF) was carried out using RNA-Seq methodology according to the manufacturer's instructions (Illumina). To analyze the ribosomal profiles, RNA-Seq reads were processed with tools from the FASTX-Toolkit (fastq_quality_trimmer, fastx_clipper and fastx_trimmer). Unprocessed and processed reads were evaluated for a variety of quality measures using FastQC, and processed reads were mapped to the human genome using TopHat (see, e.g., Trapnell et al., Bioinformatics 25:1105, 2009). Gene-by-gene assessment of the number of fragments strictly and uniquely mapping to the coding region of each gene was conducted using HTSeq-count, a component of the HTSeq package. […] Genes with low counts in either RPF or RNA were excluded from differential analyses. Pathway and network analyses of differential data were conducted using Ingenuity Pathway Analysis (IPA).

## TGFβ
ENSG00000115392, 5 replicates
  Log2 TE FANCL: −1.233
ENSG00000115594, 5 replicates
  Log2 TE IL1R1: −1.003
ENSG00000117461, 5 replicates
  Log2 TE PIK3R3: −1.0571
ENSG00000117543, 5 replicates
  Log2 TE DPH5: 1.114
ENSG00000117543, Control vs. TGFβ
  change in translational profile of DPH5 caused by TGFβ: D (D = <1.0 to 1.5)
ENSG00000117724, 5 replicates
  Log2 TE CENPF: −1.237
ENSG00000118181, 5 replicates
  Log2 TE RPS25: 1.697
ENSG00000118473, 5 replicates
  Log2 TE SGIP1: −2.768
ENSG00000118898, 5 replicates
  Log2 TE PPL: −1.54
ENSG00000118898, Control vs. TGFβ
  change in translational profile of PPL caused by TGFβ: B (B = <−1.5 to −2.5)
ENSG00000119508, 5 replicates
  Log2 TE NR4A3: −1.931
ENSG00000120156, 5 replicates
  Log2 TE TEK: −1.652
ENSG00000120278, Control vs. TGFβ
  change in translational profile of PLEKHG1 caused by TGFβ: B (B = <−1.5 to −2.5)
ENSG00000121897, Control vs. TGFβ
  change in translational profile of LIAS caused by TGFβ: D (D = <1.0 to 1.5)
ENSG00000121957, 5 replicates
  Log2 TE GPSM2: −1.408
ENSG00000121957, Control vs. TGFβ
  change in translational profile of GPSM2 caused by TGFβ: B (B = <−1.5 to −2.5)
ENSG00000122026, Control vs. TGFβ
  change in translational profile of RPL21 caused by TGFβ: E (E = <1.5 to 2.5)
ENSG00000122406, 5 replicates
  Log2 TE RPL5: 1.593
ENSG00000122406, Control vs. TGFβ
  change in translational profile of RPL5 caused by TGFβ: E (E = <1.5 to 2.5)
ENSG00000122641, Control vs. TGFβ
  change in translational profile of INHBA caused by TGFβ: D (D = <1.0 to 1.5)
ENSG00000122966, 5 replicates
  Log2 TE CIT: −3.084
ENSG00000122966, Control vs. TGFβ
  change in translational profile of CIT caused by TGFβ: A (A = <−2.5)
ENSG00000124406, 5 replicates
  Log2 TE ATP8A1: −2.122
ENSG00000124496, 5 replicates
  Log2 TE TRERF1: −1.891
ENSG00000124614, 5 replicates
  Log2 TE RPS10: 1.211
ENSG00000124749, 5 replicates
  Log2 TE COL21A1: −1.445
ENSG00000125375, 5 replicates
  Log2 TE ATP5S: 1.075
ENSG00000125691, 5 replicates
  Log2 TE RPL23: 1.604
ENSG00000125691, Control vs. TGFβ
  change in translational profile of RPL23 caused by TGFβ: E (E = <1.5 to 2.5)
ENSG00000125744, 5 replicates
  Log2 TE RTN2: −1.143
ENSG00000125869, 5 replicates
  Log2 TE LAMP5: 1.298
ENSG00000125869, Control vs. TGFβ
  change in translational profile of LAMP5 caused by TGFβ: E (E = <1.5 to 2.5)
ENSG00000125967, 5 replicates
  Log2 TE NECAB3: 1.403
ENSG00000125967, Control vs. TGFβ
  change in translational profile of NECAB3 caused by TGFβ: E (E = <1.5 to 2.5)
ENSG00000127184, Control vs. TGFβ
  change in translational profile of COX7C caused by TGFβ: D (D = <1.0 to 1.5)
ENSG00000127863, 5 replicates
  Log2 TE TNFRSF19: −1.093
ENSG00000128016, 5 replicates
  Log2 TE ZFP36: 1.188
ENSG00000128342, Control vs. TGFβ
  change in translational profile of LIF caused by TGFβ: D (D = <1.0 to 1.5)
ENSG00000128394, 5 replicates
  Log2 TE APOBEC3F: −1.127
ENSG00000128602, 5 replicates
  Log2 TE SMO: −1.254
ENSG00000128849, 5 replicates
  Log2 TE CGNL1: −1.023
ENSG00000129226, 5 replicates
  Log2 TE CD68: 1.048
ENSG00000129422, 5 replicates
  Log2 TE MTUS1: −1.149
ENSG00000129422, Control vs. TGFβ
  change in translational profile of MTUS1 caused by TGFβ: B (B = <−1.5 to −2.5)
ENSG00000129675, 5 replicates
  Log2 TE ARHGEF6: −1.1
ENSG00000129675, Control vs. TGFβ
  change in translational profile of ARHGEF6 caused by TGFβ: C (C = <−1.0 to −1.5)
ENSG00000130255, 5 replicates
  Log2 TE RPL36: 1.411
ENSG00000130255, Control vs. TGFβ
  change in translational profile of RPL36 caused by TGFβ: E (E = <1.5 to 2.5)
ENSG00000130513, Control vs. TGFβ
  change in translational profile of GDF15 caused by TGFβ: D (D = <1.0 to 1.5)
ENSG00000130707, Control vs. TGFβ
  change in translational profile of ASS1 caused by TGFβ: D (D = <1.0 to 1.5)
ENSG00000130741, 5 replicates
  Log2 TE EIF2S3: 1.067
ENSG00000130741, Control vs. TGFβ
  change in translational profile of EIF2S3 caused by TGFβ: D (D = <1.0 to 1.5)
ENSG00000131469, 5 replicates
  Log2 TE RPL27: 1.519
ENSG00000131469, Control vs. TGFβ
  change in translational profile of RPL27 caused by TGFβ: E (E = <1.5 to 2.5)
ENSG00000131747, 5 replicates
  Log2 TE TOP2A: −1.314
ENSG00000132031, 5 replicates
  Log2 TE MATN3: 1.34
ENSG00000132031, Control vs. TGFβ
  change in translational profile of MATN3 caused by TGFβ: D (D = <1.0 to 1.5)
ENSG00000132122, 5 replicates
  Log2 TE SPATA6: −1.925
ENSG00000132170, 5 replicates
  Log2 TE PPARG: −3.52
